For seven cell lines, relative viability results are on record in the supplement of paper PMC10307832.

Common to all, as to experiment: relative viability (nuclei count vs DMSO), 5 days (fraction); higher = more cells survive
Compound in the experiment “Shikonin + Lapatinib”: CC(C)=CC[C@@H](O)C1=CC(=O)c2c(O)ccc(O)c2C1=O [Shikonin] + CS(=O)(=O)CCNCc1ccc(-c2ccc3ncnc(Nc4ccc(OCc5cccc(F)c5)c(Cl)c4)c3c2)o1 [Lapatinib] (partner 2 µM)
In a few lines: (§1)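 One day after seeding in 1536-well plates, lung cancer cell lines were dosed by pin tool. Dosing was either single-drug or a fixed anchor-drug dose plus five library-drug doses (not always all listed) in √10 steps. After 5 days, nuclei were stained in one fix-and-stain step and counted on 4× images, and relative viability is the nuclei count of treated wells over that of vehicle wells, given as the median of duplicate plates.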

Compound in experiment [1]: CC(C)N(CCCNC(=O)Nc1ccc(C(C)(C)C)cc1)C[C@H]1O[C@@H](n2ccc3c(N)ncnc32)[C@H](O)[C@@H]1O + C[C@@H](Oc1cc(-c2cnn(C3CCNCC3)c2)cnc1N)c1c(Cl)ccc(F)c1Cl [Crizotinib] (partner 1 µM)
In a few lines:
as §1

Compound in experiment [2]: CC(C)N(CCCNC(=O)Nc1ccc(C(C)(C)C)cc1)C[C@H]1O[C@@H](n2ccc3c(N)ncnc32)[C@H](O)[C@@H]1O + Nc1ncn([C@H]2C[C@H](O)[C@@H](CO)O2)c(=O)n1 [Decitabine] (partner 2 µM)
In a few lines: as §1

Compound in experiment [3]: CC(C)N(CCCNC(=O)Nc1ccc(C(C)(C)C)cc1)C[C@H]1O[C@@H](n2ccc3c(N)ncnc32)[C@H](O)[C@@H]1O + O=C(c1cc(Cc2n[nH]c(=O)c3ccccc23)ccc1F)N1CCN(C(=O)C2CC2)CC1 [Olaparib] (partner 8 µM)
In a few lines: as §1

Regarding LXF-289, the relative viability came out at 0.959 in the experiment with Shikonin + Lapatinib (first compound 0.01 µM); 1 in the experiment with Shikonin + Lapatinib (first compound 0.1 µM); 0.906 in the experiment with Shikonin + Lapatinib (first compound 0.3162 µM); 0.945 with Shikonin + Lapatinib (first compound 1 µM); 0.781 in experiment [1] (first compound 0.08 µM); 0.893 in experiment [1] (first compound 0.253 µM). Moreover, the relative viability in experiment [1] (first compound 0.8 µM) was determined as 0.834; in experiment [1] (first compound 2.53 µM), 0.837; in experiment [1] (first compound 8 µM) it was 0.78; in experiment [2] (first compound 0.08 µM) it was 0.329; in experiment [2] (first compound 0.253 µM), 0.39; in experiment [2] (first compound 0.8 µM) it was 0.396. The relative viability came to 0.378 in experiment [2] (first compound 2.53 µM); 0.336 in experiment [2] (first compound 8 µM); 1.02 in experiment [3] (first compound 0.08 µM); 1.08 in experiment [3] (first compound 0.253 µM); 1.1 in experiment [3] (first compound 0.8 µM); 1.1 in experiment [3] (first compound 2.53 µM). The relative viability in experiment [3] (first compound 8 µM) turned out to be 0.991.

In the case of NCI-H23, the relative viability turned out to be 1.2 with Shikonin + Lapatinib (first compound 0.01 µM); 1.14 with Shikonin + Lapatinib (first compound 0.1 µM); 1.13 with Shikonin + Lapatinib (first compound 0.3162 µM); 1.03 in the experiment with Shikonin + Lapatinib (first compound 1 µM); 0.487 in experiment [1] (first compound 0.08 µM); 0.506 in experiment [1] (first compound 0.8 µM). Besides, the relative viability in experiment [1] (first compound 2.53 µM) was determined as 0.694; in experiment [1] (first compound 8 µM), 0.534; in experiment [2] (first compound 0.08 µM) it was 0.311; in experiment [2] (first compound 0.8 µM), 0.327; in experiment [2] (first compound 2.53 µM), 0.298; in experiment [2] (first compound 8 µM) it was 0.331. The relative viability in experiment [3] (first compound 0.08 µM) was 0.334; in experiment [3] (first compound 0.8 µM), 0.266; in experiment [3] (first compound 2.53 µM) it was 0.345; in experiment [3] (first compound 8 µM), 0.28.

Consider NCI-H322M, for which the relative viability came to 0.582 with Shikonin + Lapatinib (first compound 0.01 µM); 0.595 in the experiment with Shikonin + Lapatinib (first compound 0.1 µM); 0.585 in the experiment with Shikonin + Lapatinib (first compound 0.3162 µM); 0.566 in the experiment with Shikonin + Lapatinib (first compound 1 µM); 0.912 in experiment [1] (first compound 0.08 µM); 1.04 in experiment [1] (first compound 0.253 µM). In addition, the relative viability in experiment [1] (first compound 0.8 µM) worked out at 0.802; in experiment [1] (first compound 2.53 µM), 0.969; in experiment [1] (first compound 8 µM) it was 0.962; in experiment [2] (first compound 0.08 µM), 0.698; in experiment [2] (first compound 0.253 µM), 0.695; in experiment [2] (first compound 0.8 µM), 0.723. Further, the relative viability is 0.689 in experiment [2] (first compound 2.53 µM); 0.641 in experiment [2] (first compound 8 µM); 0.741 in experiment [3] (first compound 0.08 µM); 0.797 in experiment [3] (first compound 0.253 µM); 0.72 in experiment [3] (first compound 0.8 µM); 0.765 in experiment [3] (first compound 2.53 µM). Besides, the relative viability in experiment [3] (first compound 8 µM) was 0.625.

On to NCI-H358, for which the relative viability came out at 0.374 in the experiment with Shikonin + Lapatinib (first compound 0.01 µM); 0.53 in the experiment with Shikonin + Lapatinib (first compound 0.1 µM); 0.412 with Shikonin + Lapatinib (first compound 0.3162 µM); 0.391 with Shikonin + Lapatinib (first compound 1 µM); 0.614 in experiment [1] (first compound 0.08 µM); 0.554 in experiment [1] (first compound 0.253 µM). Further, the relative viability in experiment [1] (first compound 0.8 µM) was found to be 0.717; in experiment [1] (first compound 2.53 µM), 0.589; in experiment [1] (first compound 8 µM) it was 0.448; in experiment [2] (first compound 0.08 µM), 0.233; in experiment [2] (first compound 0.253 µM), 0.187; in experiment [2] (first compound 0.8 µM), 0.212. For the same cell line, the relative viability was found to be 0.214 in experiment [2] (first compound 2.53 µM); 0.189 in experiment [2] (first compound 8 µM); 0.593 in experiment [3] (first compound 0.08 µM); 0.605 in experiment [3] (first compound 0.253 µM); 0.565 in experiment [3] (first compound 0.8 µM); 0.562 in experiment [3] (first compound 2.53 µM). Further, in experiment [3] (first compound 8 µM), the relative viability was found to be 0.542.

For NCI-H460, the relative viability in the experiment with Shikonin + Lapatinib (first compound 0.01 µM) came to 1.32; in the experiment with Shikonin + Lapatinib (first compound 0.1 µM), 1.51; in the experiment with Shikonin + Lapatinib (first compound 0.3162 µM), 0.951; with Shikonin + Lapatinib (first compound 1 µM), 1.12; in experiment [1] (first compound 0.08 µM), 0.827; in experiment [1] (first compound 0.253 µM), 1.1. Further, the relative viability in experiment [1] (first compound 0.8 µM) came out at 0.958; in experiment [1] (first compound 2.53 µM), 0.88; in experiment [1] (first compound 8 µM), 0.696; in experiment [2] (first compound 0.08 µM) it was 0.484; in experiment [2] (first compound 0.253 µM), 0.488; in experiment [2] (first compound 0.8 µM), 0.455. The relative viability was 0.435 in experiment [2] (first compound 2.53 µM); 0.414 in experiment [2] (first compound 8 µM); 0.391 in experiment [3] (first compound 0.08 µM); 0.433 in experiment [3] (first compound 0.253 µM); 0.388 in experiment [3] (first compound 0.8 µM); 0.33 in experiment [3] (first compound 2.53 µM). The relative viability in experiment [3] (first compound 8 µM) stood at 0.345.

Regarding NCI-H520, the relative viability in the experiment with Shikonin + Lapatinib (first compound 0.1 µM) is 0.813; in the experiment with Shikonin + Lapatinib (first compound 0.3162 µM) it was 0.884; in the experiment with Shikonin + Lapatinib (first compound 1 µM), 0.923; in experiment [1] (first compound 0.08 µM), 0.789; in experiment [1] (first compound 0.253 µM), 0.548; in experiment [1] (first compound 0.8 µM) it was 0.858. Besides, the relative viability in experiment [1] (first compound 2.53 µM) came out at 0.707; in experiment [1] (first compound 8 µM) it was 0.733; in experiment [2] (first compound 0.08 µM), 0.531; in experiment [2] (first compound 0.253 µM) it was 0.469; in experiment [2] (first compound 0.8 µM) it was 0.405; in experiment [2] (first compound 2.53 µM) it was 0.471. The relative viability in experiment [2] (first compound 8 µM) amounted to 0.492; in experiment [3] (first compound 0.08 µM) it was 0.303; in experiment [3] (first compound 0.253 µM) it was 0.389; in experiment [3] (first compound 0.8 µM), 0.356; in experiment [3] (first compound 2.53 µM), 0.331; in experiment [3] (first compound 8 µM), 0.333.

For the cell line NCI-H596, the relative viability with Shikonin + Lapatinib (first compound 0.01 µM) stood at 1.19; with Shikonin + Lapatinib (first compound 0.1 µM) it was 1.02; with Shikonin + Lapatinib (first compound 0.3162 µM), 1.15; with Shikonin + Lapatinib (first compound 1 µM), 0.98; in experiment [1] (first compound 0.08 µM) it was 0.934; in experiment [1] (first compound 0.253 µM), 0.796. For the same cell line, the relative viability amounted to 0.938 in experiment [1] (first compound 0.8 µM); 1 in experiment [1] (first compound 2.53 µM); 1.12 in experiment [1] (first compound 8 µM); 1.03 in experiment [2] (first compound 0.08 µM); 0.975 in experiment [2] (first compound 0.253 µM); 1.03 in experiment [2] (first compound 0.8 µM). In addition, the relative viability in experiment [2] (first compound 2.53 µM) turned out to be 1.19; in experiment [2] (first compound 8 µM), 0.988; in experiment [3] (first compound 0.08 µM), 0.667; in experiment [3] (first compound 0.253 µM), 0.67; in experiment [3] (first compound 0.8 µM) it was 0.531; in experiment [3] (first compound 2.53 µM) it was 0.704. The relative viability in experiment [3] (first compound 8 µM) is 0.723.
